Laboratory results taken from ChEMBL document CHEMBL3885881, “DrugMatrix”.

Species: Rattus norvegicus
Assay: DrugMatrix - Regimen: Daily Repeat
Assay type: toxicity, organism-based, Sprague-Dawley
Design: regimen Daily Repeat, gender Male, age 6-8 weeks
Details: in vivo, po, route oral GAVAGE, […]; for ABSOLUTE BASOPHIL / BASOPHIL / EOSINOPHIL / NUCLEATED RED BLOOD CELLS / MONOCYTE / ABSOLUTE EOSINOPHIL / ABSOLUTE LYMPHOCYTE / ABSOLUTE MONOCYTE / ABSOLUTE SEGMENTED NEUTROPHIL / ERYTHROCYTE COUNT / HEMATOCRIT / HEMOGLOBIN / LEUKOCYTE COUNT / LYMPHOCYTE / MEAN CORPUSCULAR HEMOGLOBIN / MEAN CORPUSCULAR HEMOGLOBIN CONCENTRATION / MEAN CORPUSCULAR VOLUME / NEUTROPHIL / PLATELET COUNT: tissue Blood; for TOTAL BILIRUBIN / URIC ACID / ALANINE AMINOTRANSFERASE / ALBUMIN / ALKALINE PHOSPHATASE / ASPARTATE AMINOTRANSFERASE / BLOOD UREA NITROGEN / CARBON DIOXIDE / CHLORIDE / CHOLESTEROL / CREATINE PHOSPHOKINASE / CREATININE / GLUCOSE / LACTATE DEHYDROGENASE / LIPASE / PHOSPHORUS / POTASSIUM / SODIUM / TOTAL PROTEIN: tissue Plasma
[1] = 0 mg/kg, 72 h, dose level Control, time 3 day
[2] = 0 mg/kg, 120 h, dose level Control, time 5 day
[3] = 10 mg/kg, 72 h, dose level M1, time 3 day
[4] = 10 mg/kg, 120 h, dose level M1, time 5 day
[5] = 650 mg/kg, 72 h, dose level High, time 3 day
[6] = 650 mg/kg, 120 h, dose level High, time 5 day
[7] = 72 h, dose 6.5 mg/Kg, dose level Low, time 3 day
[8] = 120 h, dose 6.5 mg/Kg, dose level Low, time 5 day

SMILES: O=C(c1ccc(OCCN2CCCCC2)cc1)c1c(-c2ccc(O)cc2)sc2cc(O)ccc12 [RALOXIFENE]
- ABSOLUTE BASOPHIL [1]: 0 CELLS/uL
- BASOPHIL [1]: 0%
- EOSINOPHIL [1]: 0.17%
- NUCLEATED RED BLOOD CELLS [1]: 0 /100WBC
- ABSOLUTE BASOPHIL [2]: 0 CELLS/uL
- BASOPHIL [2]: 0%
- MONOCYTE [2]: 1.17%
- TOTAL BILIRUBIN [2]: 0.1 mg/dL
- URIC ACID [2]: 0.52 mg/dL
- ABSOLUTE BASOPHIL [3]: 0 CELLS/uL
- ABSOLUTE EOSINOPHIL [3]: 29.33 CELLS/uL
- ABSOLUTE LYMPHOCYTE [3]: 7440 CELLS/uL
- ABSOLUTE MONOCYTE [3]: 116 CELLS/uL
- ABSOLUTE SEGMENTED NEUTROPHIL [3]: 681.33 CELLS/uL
- BASOPHIL [3]: 0%
- EOSINOPHIL [3]: 0.33%
- ERYTHROCYTE COUNT [3]: 5.44 x10E6/uL
- HEMATOCRIT [3]: 34.47%
- HEMOGLOBIN [3]: 13.3 G/DL
- LEUKOCYTE COUNT [3]: 8.27 x10E3/uL
- LYMPHOCYTE [3]: 90.33%
- MEAN CORPUSCULAR HEMOGLOBIN [3]: 24.53 pg
- MEAN CORPUSCULAR HEMOGLOBIN CONCENTRATION [3]: 38.6 G/DL
- MEAN CORPUSCULAR VOLUME [3]: 63.53 fL
- MONOCYTE [3]: 1.33%
- NEUTROPHIL [3]: 8%
- NUCLEATED RED BLOOD CELLS [3]: 0.33 /100WBC
- PLATELET COUNT [3]: 1223 x10E3/uL
- ALANINE AMINOTRANSFERASE [3]: 53.67 u/L
- ALBUMIN [3]: 4.43 G/DL
- ALKALINE PHOSPHATASE [3]: 398.33 u/L
- ASPARTATE AMINOTRANSFERASE [3]: 90.67 u/L
- BLOOD UREA NITROGEN [3]: 10 mg/dL
- CARBON DIOXIDE [3]: 31.67 mmol/L
- CHLORIDE [3]: 101.67 MEQ/L
- CHOLESTEROL [3]: 52.67 mg/dL
- CREATINE PHOSPHOKINASE [3]: 300.33 u/L
- CREATININE [3]: 0.24 mg/dL
- GLUCOSE [3]: 151.33 mg/dL
- LACTATE DEHYDROGENASE [3]: 123 u/L
- LIPASE [3]: 9.33 u/L
- PHOSPHORUS [3]: 10.93 mg/dL
- POTASSIUM [3]: 5.67 MEQ/L
- SODIUM [3]: 147.7 MEQ/L
- TOTAL BILIRUBIN [3]: 0.13 mg/dL
- TOTAL PROTEIN [3]: 6.5 G/DL
- URIC ACID [3]: 0.87 mg/dL
- ABSOLUTE BASOPHIL [4]: 0 CELLS/uL
- ABSOLUTE EOSINOPHIL [4]: 34 CELLS/uL
- ABSOLUTE LYMPHOCYTE [4]: 8594.67 CELLS/uL
- ABSOLUTE MONOCYTE [4]: 97 CELLS/uL
- ABSOLUTE SEGMENTED NEUTROPHIL [4]: 974.33 CELLS/uL
- BASOPHIL [4]: 0%
- EOSINOPHIL [4]: 0.33%
- ERYTHROCYTE COUNT [4]: 5.62 x10E6/uL
- HEMATOCRIT [4]: 34.3%
- HEMOGLOBIN [4]: 13.33 G/DL
- LEUKOCYTE COUNT [4]: 9.7 x10E3/uL
- LYMPHOCYTE [4]: 89%
- MEAN CORPUSCULAR HEMOGLOBIN [4]: 23.8 pg
- MEAN CORPUSCULAR HEMOGLOBIN CONCENTRATION [4]: 38.93 G/DL
- MEAN CORPUSCULAR VOLUME [4]: 61.13 fL
- MONOCYTE [4]: 1%
- NEUTROPHIL [4]: 9.67%
- NUCLEATED RED BLOOD CELLS [4]: 0 /100WBC
- PLATELET COUNT [4]: 1211.33 x10E3/uL
- ALANINE AMINOTRANSFERASE [4]: 42.33 u/L
- ALBUMIN [4]: 4.5 G/DL
- ALKALINE PHOSPHATASE [4]: 301.33 u/L
- ASPARTATE AMINOTRANSFERASE [4]: 77.67 u/L
- BLOOD UREA NITROGEN [4]: 9 mg/dL
- CARBON DIOXIDE [4]: 28.67 mmol/L
- CHLORIDE [4]: 102 MEQ/L
- CHOLESTEROL [4]: 50 mg/dL
- CREATINE PHOSPHOKINASE [4]: 198.67 u/L
- CREATININE [4]: 0.33 mg/dL
- GLUCOSE [4]: 168.33 mg/dL
- LACTATE DEHYDROGENASE [4]: 130.67 u/L
- LIPASE [4]: 8.33 u/L
- PHOSPHORUS [4]: 12.1 mg/dL
- POTASSIUM [4]: 4.86 MEQ/L
- SODIUM [4]: 146.9 MEQ/L
- TOTAL BILIRUBIN [4]: 0.1 mg/dL
- TOTAL PROTEIN [4]: 6.33 G/DL
- URIC ACID [4]: 0.77 mg/dL
- ABSOLUTE BASOPHIL [5]: 0 CELLS/uL
- BASOPHIL [5]: 0%
- NUCLEATED RED BLOOD CELLS [5]: 0 /100WBC
- LIPASE [5]: 10.33 u/L
- URIC ACID [5]: 0.67 mg/dL
- ABSOLUTE BASOPHIL [6]: 0 CELLS/uL
- BASOPHIL [6]: 0%
- NUCLEATED RED BLOOD CELLS [6]: 0 /100WBC
- ABSOLUTE BASOPHIL [7]: 0 CELLS/uL
- ABSOLUTE EOSINOPHIL [7]: 59.33 CELLS/uL
- ABSOLUTE LYMPHOCYTE [7]: 5494.67 CELLS/uL
- ABSOLUTE MONOCYTE [7]: 60.33 CELLS/uL
- ABSOLUTE SEGMENTED NEUTROPHIL [7]: 452.33 CELLS/uL
- BASOPHIL [7]: 0%
- EOSINOPHIL [7]: 0.67%
- ERYTHROCYTE COUNT [7]: 5.5 x10E6/uL
- HEMATOCRIT [7]: 35.2%
- HEMOGLOBIN [7]: 13.7 G/DL
- LEUKOCYTE COUNT [7]: 6.07 x10E3/uL
- LYMPHOCYTE [7]: 90.33%
- MEAN CORPUSCULAR HEMOGLOBIN [7]: 24.87 pg
- MEAN CORPUSCULAR HEMOGLOBIN CONCENTRATION [7]: 38.93 G/DL
- MEAN CORPUSCULAR VOLUME [7]: 63.93 fL
- MONOCYTE [7]: 1.33%
- NEUTROPHIL [7]: 7.67%
- NUCLEATED RED BLOOD CELLS [7]: 0.67 /100WBC
- PLATELET COUNT [7]: 1046.33 x10E3/uL
- ALANINE AMINOTRANSFERASE [7]: 63 u/L
- ALBUMIN [7]: 4.13 G/DL
- ALKALINE PHOSPHATASE [7]: 536.33 u/L
- ASPARTATE AMINOTRANSFERASE [7]: 92 u/L
- BLOOD UREA NITROGEN [7]: 8.67 mg/dL
- CARBON DIOXIDE [7]: 29.67 mmol/L
- CHLORIDE [7]: 98.33 MEQ/L
- CHOLESTEROL [7]: 41 mg/dL
- CREATINE PHOSPHOKINASE [7]: 405 u/L
- CREATININE [7]: 0.12 mg/dL
- GLUCOSE [7]: 157 mg/dL
- LACTATE DEHYDROGENASE [7]: 73.33 u/L
- LIPASE [7]: 9.67 u/L
- PHOSPHORUS [7]: 10.5 mg/dL
- POTASSIUM [7]: 5.24 MEQ/L
- SODIUM [7]: 143.33 MEQ/L
- TOTAL BILIRUBIN [7]: 0.13 mg/dL
- TOTAL PROTEIN [7]: 6.07 G/DL
- URIC ACID [7]: 0.63 mg/dL
- ABSOLUTE BASOPHIL [8]: 0 CELLS/uL
- ABSOLUTE EOSINOPHIL [8]: 0 CELLS/uL
- ABSOLUTE LYMPHOCYTE [8]: 6955.67 CELLS/uL
- ABSOLUTE MONOCYTE [8]: 124.33 CELLS/uL
- ABSOLUTE SEGMENTED NEUTROPHIL [8]: 286.67 CELLS/uL
- BASOPHIL [8]: 0%
- EOSINOPHIL [8]: 0%
- ERYTHROCYTE COUNT [8]: 5.53 x10E6/uL
- HEMATOCRIT [8]: 34.77%
- HEMOGLOBIN [8]: 13.37 G/DL
- LEUKOCYTE COUNT [8]: 7.37 x10E3/uL
- LYMPHOCYTE [8]: 94.33%
- MEAN CORPUSCULAR HEMOGLOBIN [8]: 24.17 pg
- MEAN CORPUSCULAR HEMOGLOBIN CONCENTRATION [8]: 38.47 G/DL
- MEAN CORPUSCULAR VOLUME [8]: 62.87 fL
- MONOCYTE [8]: 1.67%
- NEUTROPHIL [8]: 4%
- NUCLEATED RED BLOOD CELLS [8]: 0 /100WBC
- PLATELET COUNT [8]: 1226.67 x10E3/uL
- ALANINE AMINOTRANSFERASE [8]: 57 u/L
- ALBUMIN [8]: 4.1 G/DL
- ALKALINE PHOSPHATASE [8]: 411.67 u/L
- ASPARTATE AMINOTRANSFERASE [8]: 105.33 u/L
- BLOOD UREA NITROGEN [8]: 10.33 mg/dL
- CARBON DIOXIDE [8]: 28.33 mmol/L
- CHLORIDE [8]: 99.33 MEQ/L
- CHOLESTEROL [8]: 26 mg/dL
- CREATINE PHOSPHOKINASE [8]: 332.33 u/L
- CREATININE [8]: 0.19 mg/dL
- GLUCOSE [8]: 169 mg/dL
- LACTATE DEHYDROGENASE [8]: 99.67 u/L
- LIPASE [8]: 30 u/L
- PHOSPHORUS [8]: 11.23 mg/dL
- POTASSIUM [8]: 5.86 MEQ/L
- SODIUM [8]: 144.43 MEQ/L
- TOTAL BILIRUBIN [8]: 0.1 mg/dL
- TOTAL PROTEIN [8]: 5.87 G/DL
- URIC ACID [8]: 1 mg/dL
